In ChEMBL document CHEMBL1201862, “PubChem BioAssay data set” (2004):
Active and inactive are the calls of the source.

Experiments:
[1] = target: T1, Endoribonuclease toxin MazF (Escherichia coli K-12, UniProt P0AE70); assay: MazF endoribonuclease activators, SAR follow-up, biochemical, fluorescence, single-stranded RNA substrate (AID 588603); format: functional
T1 sequence (P0AE70 whole entry): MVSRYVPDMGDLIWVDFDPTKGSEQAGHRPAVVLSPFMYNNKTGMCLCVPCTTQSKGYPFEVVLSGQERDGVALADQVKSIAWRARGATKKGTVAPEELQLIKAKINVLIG

MEF = assay: SAR analysis of small molecule cytotoxicity of MazEF TA System activators in embryonic fibroblast (MEF) cells. [Related pubchem assays (depositor defined):AID504720, AID504743]; format: functional; details: Mus musculus
[2] = target: T1, Endoribonuclease toxin MazF; assay: fluorescent RNA oligo signal without MazF, dose response, counter-screen for MazEF activator project, biochemical, fluorescence, single-stranded RNase substrate (AID 588502); format: functional
[3] = target: T1, Endoribonuclease toxin MazF; assay: SAR analysis of small molecule activators of the MazEF TA System via a fluorescence-based single-stranded RNase assay counterscreen. [Related pubchem assays (depositor defined):AID504720, AID504743]; format: functional
[4] = target: T1, Endoribonuclease toxin MazF; assay: MazF toxin RNase activators, dose response, biochemical, fluorescence, single-stranded RNA substrate, uHTS hits (AID 588481); format: functional
Beta Lactamase = Beta Lactamase (Pseudomonas aeruginosa, UniProt Q932Y6); assay: beta-lactamase reporter inhibitor potency, dose response, artefact control for TLR9-MyD88 binding inhibitor project, BLA reporter cells, FRET fluorescence (AID 588341); format: cell-based;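 also: cell based assay in CHO-K1 cells stably expressing beta-lactamase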
CHO = assay: cytotoxicity in TLR9-MyD88 CHO cells, dose response, cytotoxicity control for TLR9-MyD88 binding inhibitor project, cell-based, luminescence (AID 588339); format: functional, hamster; details: Cricetulus griseus;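 also: CHO cells stably coexpressing TLR9 and MyD88 fusions from primary screen; compound exposure lasted 48 hours before viability readout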
[5] = THP-1 cell cytotoxicity, dose response, cytotoxicity control, set 3 (AID 504852); format: functional; details: Mycobacterium tuberculosis
[6] = Vero cell cytotoxicity, dose response, cytotoxicity control for M. tuberculosis growth inhibitor project, Vero cells, purified and synthesized compounds, set 4 (AID 504854); format: functional; details: Mycobacterium tuberculosis
[7] = THP-1 cell cytotoxicity, cytotoxicity control, set 4 (AID 504911); format: functional; details: Mycobacterium tuberculosis
[8] = THP-1 cell cytotoxicity, dose response, cytotoxicity control for Vif-APOBEC3G degradation inhibitor project, THP-1 cells (AID 1117359); format: functional; details: Human immunodeficiency virus 1, THP-1
Vero [9] = assay: Vero cell cytotoxicity, cytotoxicity control for flavivirus capping enzyme inhibitors (AID 588742); format: functional; details: Chlorocebus sabaeus
[10] = growth suppression of beta-catenin-knockout colon cells, dose response, cell-based, HCT116, human colon tumor (AID 1045); format: functional;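 also: HCT116 colon tumor cells with beta catenin knocked out; cells exposed to compound for 60 hours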
[11] = target: T2, Mannose-6-phosphate isomerase (Homo sapiens, UniProt P34949); assay: human PMI inhibitors, high substrate, primary screen, biochemical, fluorescence intensity, high mannose 6-phosphate (AID 1220)
T2 sequence (P34949 whole entry): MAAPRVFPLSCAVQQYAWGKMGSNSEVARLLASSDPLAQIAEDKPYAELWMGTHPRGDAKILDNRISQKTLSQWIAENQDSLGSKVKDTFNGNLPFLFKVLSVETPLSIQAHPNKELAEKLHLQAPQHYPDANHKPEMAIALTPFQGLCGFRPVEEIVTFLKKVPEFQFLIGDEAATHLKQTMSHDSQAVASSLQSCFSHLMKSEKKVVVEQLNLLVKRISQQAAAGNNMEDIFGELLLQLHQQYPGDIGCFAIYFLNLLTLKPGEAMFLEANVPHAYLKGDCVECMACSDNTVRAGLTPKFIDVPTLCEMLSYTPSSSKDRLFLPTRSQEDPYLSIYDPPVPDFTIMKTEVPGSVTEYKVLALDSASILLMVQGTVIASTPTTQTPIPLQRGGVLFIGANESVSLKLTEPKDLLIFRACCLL

Protein Tat = Protein Tat (Human immunodeficiency virus type 1 group M subtype B (isolate HXB2)(HIV-1), UniProt P04608); format: functional;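 also: tat binding to TAR RNA read out by fluorescence polarization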
[12] = growth suppression of PTEN-null colon cells, dose response, cell-based, HCT116 PTEN knockout (AID 1047); format: functional;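 also: HCT116 colon tumor cells with PTEN knocked out; cells exposed to compound for 60 hours before readout; potency for loss of cell viability measured by luminescence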
[13] = inhibitors of cytokine-induced nitrite release, dose response, cell-based, Griess absorbance, INS-1E, dry powder, set 3 (AID 488870); format: functional; details: Rattus norvegicus
INS1 [14] = assay: protection from cytokine-induced mitochondrial depolarization, dose response, cell-based, INS-1E, JC-1 fluorescence ratio, dry powder (AID 488931); format: functional; details: Rattus norvegicus
INS1 [15] = assay: inhibitors of cytokine-induced nitrite release, dose response, cell-based, Griess absorbance, INS-1E, dry powder (AID 488866); format: functional; details: Rattus norvegicus
INS1 [16] = assay: inhibitors of cytokine-induced nitrite release, dose response, cell-based, Griess absorbance, INS-1E, dry powder, set 2 (AID 488868); format: functional; details: Rattus norvegicus
INS1 [17] = assay: protection of INS-1E cells from cytokine death, dose response, ATP luminescence, dry powder (AID 488844); format: functional, cell-based; details: Rattus norvegicus
[18] = target: Serine/threonine-protein kinase PLK4 (Homo sapiens, UniProt O00444); format: functional;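 also: PLK4 measured as one member of a kinome-wide kinase profiling panel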
[19] = target: Serine/threonine-protein kinase PLK3 (Homo sapiens, UniProt Q9H4B4); format: functional
[20] = target: Interleukin-1 receptor-associated kinase 1 (Homo sapiens, UniProt P51617); format: functional;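 also: IRAK1 tested as one member of a kinome panel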
[21] = target: T3, High affinity choline transporter 1 (Homo sapiens, UniProt Q9GZV3); assay: CHT activators, dose response, cell-based, 10-point CRC, membrane potential dye (AID 602376); format: functional
T3 sequence (Q9GZV3 whole entry): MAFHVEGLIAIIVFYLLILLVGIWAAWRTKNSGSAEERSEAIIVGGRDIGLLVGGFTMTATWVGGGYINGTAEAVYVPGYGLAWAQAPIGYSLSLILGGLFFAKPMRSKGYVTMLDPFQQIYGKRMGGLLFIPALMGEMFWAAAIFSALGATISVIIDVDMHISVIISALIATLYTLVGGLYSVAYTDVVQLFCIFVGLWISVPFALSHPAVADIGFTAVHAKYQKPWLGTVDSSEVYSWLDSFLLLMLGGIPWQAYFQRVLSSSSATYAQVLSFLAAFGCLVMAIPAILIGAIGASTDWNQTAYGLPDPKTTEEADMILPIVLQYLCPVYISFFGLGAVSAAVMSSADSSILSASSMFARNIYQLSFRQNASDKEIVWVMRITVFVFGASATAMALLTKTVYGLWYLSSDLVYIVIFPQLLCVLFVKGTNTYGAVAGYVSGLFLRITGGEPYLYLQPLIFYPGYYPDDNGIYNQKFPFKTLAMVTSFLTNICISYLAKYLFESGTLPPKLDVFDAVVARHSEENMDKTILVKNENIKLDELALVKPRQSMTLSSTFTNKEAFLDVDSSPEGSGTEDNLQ

Cytochrome P450 2C9 = Cytochrome P450 2C9 (Homo sapiens, UniProt P11712)
[22] = cytotoxicity toward DRD oncogenic fibroblasts, dose response, cell-based, non-viral oncogenic, luminescence (AID 1934); format: functional; details: Homo sapiens
BJ [23] = assay: cytotoxicity toward Ras-transformed BJeLR fibroblasts, dose response, cell-based, alamar blue fluorescence, cherrypicked samples (AID 2631); format: functional; details: Homo sapiens;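 also: confirmatory dose-response assay in RAS-dependent BJ fibroblasts engineered with TERT, LT and ST, with cytotoxicity read by fluorescence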
BJ [24] = assay: cells; format: functional, cell-based; details: Homo sapiens
BJ [25] = assay: cytotoxicity toward BJ-TERT fibroblasts, dose response, cell-based, RAS-independent, luminescence (AID 1933); format: functional; details: Homo sapiens
BJ [26] = assay: cytotoxicity toward BJ-TERT-LT-ST fibroblasts, dose response, cell-based, RAS-independent, luminescence (AID 1935); format: functional; details: Homo sapiens;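 also: BJ fibroblasts immortalized with TERT plus LT and ST oncogenes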
INS1 [27] = assay: beta cell apoptosis inhibitors, cytokine rescue, dose response, luminescence, retest (AID 449756); format: functional, cell-based; details: Rattus norvegicus;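 also: cell death triggered by IL-1 beta plus TNF-alpha plus IFN-gamma mixture; protective hits raise ATP signal compared with cytokine alone wells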
Cytochrome P450 2C19 = Cytochrome P450 2C19 (Homo sapiens, UniProt P33261); assay: Cytochrome panel assay with activity outcomes. Panel member name: p450-cyp2c19 Compounds with AC50 equal or less than 10 uM are considered active; format: functional; details: read-out: AC50
[28] = target: Beta-2 adrenergic receptor (Homo sapiens, UniProt P07550); assay: beta2AR agonists driving receptor internalization, dose response, cell-based, FAP fluorogen, flow cytometry, cherry pick 1 (AID 588763); format: functional
[29] = target: Delta-type opioid receptor (Homo sapiens, UniProt P41143); assay: Counterscreen for agonists of heterodimerization of the mu 1 (OPRM1) and delta 1 (OPRD1) opioid receptors: Luminescence-based cell-based high throughput dose response assay to identify agonists of OPRD1 homodimerization. [Related pubchem assays (depositor defined):AID504326, AID504355, AID504692, AID504904, AID504905]; format: functional
Mu-type opioid receptor = Mu-type opioid receptor (Homo sapiens, UniProt P35372); assay: Counterscreen for agonists of heterodimerization of the mu 1 (OPRM1) and delta 1 (OPRD1) opioid receptors: Luminescence-based cell-based high throughput dose response assay to identify agonists of OPRM1 homodimerization.; format: functional;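 also: U2OS cells expressing OPRM1 and beta-arrestin as split beta-galactosidase partners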
[30] = target: 5-hydroxytryptamine receptor 5A (Homo sapiens, UniProt P47898); assay: Counterscreen for agonists of OPRM1-OPRD1 heterodimerization: luminescence-based cell-based high throughput dose response assay to identify agonists of 5-hydroxytryptamine (serotonin) 5A receptor (HTR5A). [Related pubchem assays (depositor defined):AID504326, AID504355, AID504692, AID504904, AID504905]; format: functional
Nonstructural protein 1 = Nonstructural protein 1 (Influenza A virus, UniProt Q194T2); format: functional, Influenza A virus (A/California/07/2009(H1N1))
Vero [31] = assay: Vero E6 cell cytotoxicity, dose response, cytotoxicity control (AID 540298); format: functional; details: Chlorocebus sabaeus
[32] = target: Heat shock protein HSP 90-alpha (Homo sapiens, UniProt P07900); format: functional, organism-based
MDCK [33] = assay: antiviral activity against H1N1 influenza, dose response, cell-based, strain KY136 (AID 540257); format: functional; details: Canis lupus familiaris
MDCK [34] = assay: MDCK cell cytotoxicity, dose response, cytotoxicity control (AID 540296); format: functional; details: Canis lupus familiaris

Beta-2 adrenergic receptor, sequence (P07550 whole entry): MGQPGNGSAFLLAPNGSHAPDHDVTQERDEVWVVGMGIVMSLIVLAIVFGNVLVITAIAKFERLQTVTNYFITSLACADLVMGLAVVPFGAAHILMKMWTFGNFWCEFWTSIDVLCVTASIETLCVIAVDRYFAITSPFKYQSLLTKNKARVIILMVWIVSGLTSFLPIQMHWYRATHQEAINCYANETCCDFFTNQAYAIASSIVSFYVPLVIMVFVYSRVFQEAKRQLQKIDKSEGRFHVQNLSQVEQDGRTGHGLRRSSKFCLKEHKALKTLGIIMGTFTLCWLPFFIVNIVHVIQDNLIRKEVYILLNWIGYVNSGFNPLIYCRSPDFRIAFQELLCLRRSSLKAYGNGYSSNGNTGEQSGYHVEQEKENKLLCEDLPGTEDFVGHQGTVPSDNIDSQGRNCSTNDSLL
Beta Lactamase, sequence (Q932Y6 whole entry, the tested form may be a part): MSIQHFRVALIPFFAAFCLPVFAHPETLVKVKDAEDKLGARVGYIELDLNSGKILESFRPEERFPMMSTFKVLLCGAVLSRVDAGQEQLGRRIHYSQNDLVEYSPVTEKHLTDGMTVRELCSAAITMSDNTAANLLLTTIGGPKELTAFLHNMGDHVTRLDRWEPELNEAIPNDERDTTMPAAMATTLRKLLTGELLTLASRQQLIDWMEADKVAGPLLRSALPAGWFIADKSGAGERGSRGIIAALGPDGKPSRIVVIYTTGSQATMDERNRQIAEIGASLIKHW
Cytochrome P450 2C9, sequence (P11712 whole entry): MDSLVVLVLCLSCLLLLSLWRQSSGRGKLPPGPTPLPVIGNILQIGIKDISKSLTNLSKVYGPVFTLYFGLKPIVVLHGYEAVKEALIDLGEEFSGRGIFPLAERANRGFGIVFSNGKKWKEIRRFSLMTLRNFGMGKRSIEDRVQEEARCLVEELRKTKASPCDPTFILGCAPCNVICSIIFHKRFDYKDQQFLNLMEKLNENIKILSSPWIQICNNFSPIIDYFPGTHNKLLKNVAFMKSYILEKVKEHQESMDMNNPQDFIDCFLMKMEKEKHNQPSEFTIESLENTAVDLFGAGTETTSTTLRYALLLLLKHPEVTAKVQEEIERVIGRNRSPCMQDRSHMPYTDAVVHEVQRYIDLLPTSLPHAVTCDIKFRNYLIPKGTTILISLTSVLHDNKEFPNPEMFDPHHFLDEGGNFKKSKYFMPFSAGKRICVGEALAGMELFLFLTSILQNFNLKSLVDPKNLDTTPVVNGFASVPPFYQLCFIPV
Mu-type opioid receptor, sequence (P35372 whole entry): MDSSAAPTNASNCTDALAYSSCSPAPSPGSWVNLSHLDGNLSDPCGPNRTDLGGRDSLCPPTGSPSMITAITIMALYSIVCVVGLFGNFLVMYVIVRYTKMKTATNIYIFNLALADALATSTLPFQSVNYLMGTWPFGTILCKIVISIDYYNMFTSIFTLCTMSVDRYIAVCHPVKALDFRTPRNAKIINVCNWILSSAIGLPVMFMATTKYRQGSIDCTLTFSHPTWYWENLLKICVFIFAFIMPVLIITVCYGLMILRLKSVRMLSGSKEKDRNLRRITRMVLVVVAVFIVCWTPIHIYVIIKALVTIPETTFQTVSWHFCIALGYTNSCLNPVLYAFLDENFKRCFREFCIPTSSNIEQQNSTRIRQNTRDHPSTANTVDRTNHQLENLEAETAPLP
Serine/threonine-protein kinase PLK3, sequence (Q9H4B4 whole entry): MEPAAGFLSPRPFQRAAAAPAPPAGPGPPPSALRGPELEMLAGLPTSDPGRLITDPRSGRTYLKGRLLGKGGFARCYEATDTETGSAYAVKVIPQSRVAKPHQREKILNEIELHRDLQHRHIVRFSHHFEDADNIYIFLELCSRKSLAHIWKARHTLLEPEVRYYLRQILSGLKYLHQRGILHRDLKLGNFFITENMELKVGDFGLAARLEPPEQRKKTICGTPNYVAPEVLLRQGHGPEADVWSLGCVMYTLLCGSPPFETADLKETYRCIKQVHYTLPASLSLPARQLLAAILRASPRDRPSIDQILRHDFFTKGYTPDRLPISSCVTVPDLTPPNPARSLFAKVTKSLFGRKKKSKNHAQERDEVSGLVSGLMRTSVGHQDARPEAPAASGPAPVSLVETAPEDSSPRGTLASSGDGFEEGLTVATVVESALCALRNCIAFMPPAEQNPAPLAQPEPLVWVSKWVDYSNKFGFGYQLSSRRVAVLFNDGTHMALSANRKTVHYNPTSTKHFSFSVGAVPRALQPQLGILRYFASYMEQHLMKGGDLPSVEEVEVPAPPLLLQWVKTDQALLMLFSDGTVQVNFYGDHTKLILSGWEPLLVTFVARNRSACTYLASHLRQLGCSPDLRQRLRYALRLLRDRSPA
Nonstructural protein 1, sequence (Q194T2 whole entry): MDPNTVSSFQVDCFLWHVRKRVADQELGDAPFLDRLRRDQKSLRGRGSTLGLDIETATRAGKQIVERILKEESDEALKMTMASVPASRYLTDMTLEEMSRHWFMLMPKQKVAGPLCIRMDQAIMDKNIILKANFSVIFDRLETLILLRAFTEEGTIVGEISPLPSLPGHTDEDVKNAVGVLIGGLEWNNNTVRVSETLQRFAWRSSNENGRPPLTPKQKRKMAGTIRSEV
Interleukin-1 receptor-associated kinase 1, sequence (P51617 whole entry): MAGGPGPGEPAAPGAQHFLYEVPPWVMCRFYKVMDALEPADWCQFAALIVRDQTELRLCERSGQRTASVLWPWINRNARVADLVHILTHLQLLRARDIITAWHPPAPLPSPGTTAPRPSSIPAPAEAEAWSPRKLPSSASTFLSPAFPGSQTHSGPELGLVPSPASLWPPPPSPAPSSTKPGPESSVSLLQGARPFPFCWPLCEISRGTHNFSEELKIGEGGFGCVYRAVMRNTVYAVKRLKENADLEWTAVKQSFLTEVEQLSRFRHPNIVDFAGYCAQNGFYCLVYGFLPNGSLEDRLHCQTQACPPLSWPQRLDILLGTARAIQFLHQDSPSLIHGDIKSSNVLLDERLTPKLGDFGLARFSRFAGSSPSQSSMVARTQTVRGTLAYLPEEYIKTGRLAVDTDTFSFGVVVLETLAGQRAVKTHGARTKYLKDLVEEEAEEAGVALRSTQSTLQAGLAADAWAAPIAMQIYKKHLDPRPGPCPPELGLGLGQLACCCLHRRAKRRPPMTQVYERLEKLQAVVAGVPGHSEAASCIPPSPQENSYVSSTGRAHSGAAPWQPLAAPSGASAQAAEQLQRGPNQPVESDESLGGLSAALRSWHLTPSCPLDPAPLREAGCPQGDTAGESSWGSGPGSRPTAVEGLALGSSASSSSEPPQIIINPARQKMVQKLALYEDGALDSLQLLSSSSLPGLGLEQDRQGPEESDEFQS
5-hydroxytryptamine receptor 5A, sequence (P47898 whole entry): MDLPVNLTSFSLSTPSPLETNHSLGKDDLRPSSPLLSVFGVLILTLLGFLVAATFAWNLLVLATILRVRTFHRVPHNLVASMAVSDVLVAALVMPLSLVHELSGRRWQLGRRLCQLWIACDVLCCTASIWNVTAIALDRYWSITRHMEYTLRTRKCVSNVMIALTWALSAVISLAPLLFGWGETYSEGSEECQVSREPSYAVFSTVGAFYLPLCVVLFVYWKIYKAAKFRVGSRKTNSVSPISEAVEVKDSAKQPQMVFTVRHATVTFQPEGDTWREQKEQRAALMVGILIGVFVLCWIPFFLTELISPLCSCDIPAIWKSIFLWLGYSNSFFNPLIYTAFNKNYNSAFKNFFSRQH
Delta-type opioid receptor, sequence (P41143 whole entry): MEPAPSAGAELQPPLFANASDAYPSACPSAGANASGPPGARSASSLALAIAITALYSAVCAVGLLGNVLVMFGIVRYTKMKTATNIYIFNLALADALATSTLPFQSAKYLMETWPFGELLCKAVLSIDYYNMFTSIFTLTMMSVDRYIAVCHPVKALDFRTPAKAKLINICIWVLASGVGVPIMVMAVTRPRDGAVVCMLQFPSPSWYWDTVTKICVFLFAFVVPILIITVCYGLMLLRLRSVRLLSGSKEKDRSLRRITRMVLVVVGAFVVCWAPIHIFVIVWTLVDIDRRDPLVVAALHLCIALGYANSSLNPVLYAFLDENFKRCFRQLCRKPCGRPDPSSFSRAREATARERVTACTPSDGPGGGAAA
Protein Tat, sequence (P04608 whole entry): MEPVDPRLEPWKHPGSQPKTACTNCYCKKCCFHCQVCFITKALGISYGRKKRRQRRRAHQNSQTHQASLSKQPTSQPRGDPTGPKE
Serine/threonine-protein kinase PLK4, sequence (O00444 whole entry): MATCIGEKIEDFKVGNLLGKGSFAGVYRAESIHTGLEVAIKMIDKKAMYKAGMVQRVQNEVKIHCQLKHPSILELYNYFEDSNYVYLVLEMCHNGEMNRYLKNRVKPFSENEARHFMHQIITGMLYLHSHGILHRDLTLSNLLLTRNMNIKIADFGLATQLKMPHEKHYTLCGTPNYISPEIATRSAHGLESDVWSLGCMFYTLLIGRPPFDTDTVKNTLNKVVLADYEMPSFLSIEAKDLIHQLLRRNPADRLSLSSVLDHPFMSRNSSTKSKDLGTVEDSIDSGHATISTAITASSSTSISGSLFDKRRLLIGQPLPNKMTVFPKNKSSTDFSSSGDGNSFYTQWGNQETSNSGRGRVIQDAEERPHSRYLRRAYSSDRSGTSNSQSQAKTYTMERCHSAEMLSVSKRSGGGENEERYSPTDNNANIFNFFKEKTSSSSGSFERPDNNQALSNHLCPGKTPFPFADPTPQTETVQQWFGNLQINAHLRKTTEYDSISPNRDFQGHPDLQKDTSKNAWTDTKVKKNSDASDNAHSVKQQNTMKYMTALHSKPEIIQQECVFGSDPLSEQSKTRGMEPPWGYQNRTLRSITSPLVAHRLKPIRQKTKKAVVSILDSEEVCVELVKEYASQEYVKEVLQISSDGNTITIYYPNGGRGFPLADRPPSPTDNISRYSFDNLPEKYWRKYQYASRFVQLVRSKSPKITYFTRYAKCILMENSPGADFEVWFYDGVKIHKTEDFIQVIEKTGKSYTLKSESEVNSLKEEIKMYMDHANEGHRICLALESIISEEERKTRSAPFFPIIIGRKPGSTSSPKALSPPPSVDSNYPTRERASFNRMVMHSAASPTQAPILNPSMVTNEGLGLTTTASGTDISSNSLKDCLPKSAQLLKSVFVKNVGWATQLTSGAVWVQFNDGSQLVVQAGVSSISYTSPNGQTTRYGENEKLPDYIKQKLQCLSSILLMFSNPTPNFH

N#Cc1ccc(N2C(=O)[C@@H]3C(C(=O)c4ccc5ccccc5n4)=NN[C@@H]3C2=O)cc1
EC50 [1]: 7.74 µM (active)
CC50 (MEF): > 99 µM (inactive)
EC50 [2]: 0.271 µM (active)
EC50 [3]: > 99 µM (inactive)
EC50 [4]: 15.1 µM (active)

Nc1ccc2c(c1)Cc1cc([N+](=O)[O-])ccc1-2
IC50 (Beta Lactamase): 6.37 µM (active)
IC50 (CHO): > 49.8 µM (inactive)

COC(=O)C(C)Oc1ccc(Cc2ncc(C(F)(F)F)cc2Cl)cc1 (configuration not stated)
CC50 [5]: > 100 µM (active)
CC50 [6]: > 100 µM (active)
CC50 [7]: > 100 µM (active)

CCOc1cccc(CNc2ccc(O)cc2)c1OCc1ccc(Cl)cc1
CC50 [8]: 37 µM (active)
CC50 (Vero [9]): > 40 µM (active)
EC50 [10]: 29.4 µM (active)
IC50 [11]: > 50 µM (not active)
IC50 (Protein Tat): 86 µM (inconclusive)
EC50 [12]: 25.2 µM (active)

COc1ccc(S(=O)(=O)N(C)C[C@@H]2Oc3c(NC(=O)Nc4cccc5ccccc45)cccc3C(=O)N([C@@H](C)CO)C[C@H]2C)cc1Cl
AC50 [13]: 52.8 µM (active)
AC50 (INS1 [14]): 147 µM (active)
AC50 (INS1 [15]): 46.3 µM (active)
AC50 (INS1 [16]): 39.5 µM (active)
AC50 (INS1 [17]): 27.3 µM (active)

CCCn1c(=O)c2[nH]c(-c3cnn(Cc4cccc(C(F)(F)F)c4)c3)nc2n(CC)c1=O [GS 6201]
Ki [18]: 3.98 µM (active)
Ki [19]: 7.94 µM (active)
Ki [20]: 7.94 µM (active)

CN(Cc1cccc(F)c1)C(=O)c1ccccc1Sc1ccccc1C#N
EC50 [21]: 15 µM (active)

O=C(COc1ccc([N+](=O)[O-])cc1)Nc1ccc(C(=O)NCc2cccnc2)cc1
AC50 (Cytochrome P450 2C9): 22.4 µM (inconclusive)
EC50 [22]: > 150 µM (not active)
EC50 (BJ [23]): 2.51 µM (inconclusive)
EC50 (BJ [24]): 12.8 µM (inconclusive)
EC50 (BJ [25]): > 150 µM (not active)
EC50 (BJ [26]): > 150 µM (not active)
AC50 (INS1 [27]): < 0.195 µM (active)
AC50 (Cytochrome P450 2C19): 7.94 µM (inconclusive)

O=C(Cc1ccccc1)NC1(Cc2ccc(O)cc2)CCCCC1
EC50 [28]: 7.47 µM (active)

O=C(C=P(c1ccccc1)(c1ccccc1)c1ccccc1)c1ccccc1-c1ccccc1C(=O)C=P(c1ccccc1)(c1ccccc1)c1ccccc1
EC50 [29]: > 92.5 µM (inactive)
EC50 (Mu-type opioid receptor): > 92.5 µM (inactive)
EC50 [30]: > 92.5 µM (inactive)
IC50 (Nonstructural protein 1): 58.5 µM (active)
CC50 (Vero [31]): 3.43 µM (active)
AC50 [32]: 8.19 µM (active)
IC50 (MDCK [33]): 2.54 µM (active)
CC50 (MDCK [34]): 6.63 µM (active)
